# According to US10351546B2, “Pyridin-3-yl acetic acid derivatives as inhibitors of human immunodeficiency virus replication” (priority 2015, dated 2019):
# System: NL-RLuc virus
# Assay: Inhibition of HIV replication (NL-RLuc luciferase reporter virus in MT-2 cells)
# Format: cell-based
# Settings: Human immunodeficiency virus 1, MT2, 120 h, read-out: Activity
# How it was run: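 The read-out is Renilla luciferase expressed by replication-competent NL-RLuc (nef partly replaced), measured 5 days after infection of MT-2 cells grown with compound dilutions in 10% FBS RPMI. Median effect equation gives EC50 from ≥2 runs; A ≤100 nM, B 100 nM–1 uM, C >1 uM.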
row,SMILES,EC50 [µM]
1,"CCOCCOCc1nc(C)c([C@H](OC(C)(C)C)C(=O)O)c(N2CCC(C)(C)CC2)c1-c1ccc2c(c1)CCN(Cc1ccc(F)cc1C)C2 [Example 160, (S)-2-(tert-Butoxy)-2-(4-(4,4-dimethylpiperidin-1-yl)-6-((2-ethoxyethoxy)methyl)-5-(2-(4-fluoro-2-methylbenzyl)-1,2,3,4-tetrahydroisoquinolin-6-yl)-2-methylpyridin-3-yl)acetic acid]",< 0.1
2,"Cc1nc(C(=O)N(C)CC2CCCCC2)c(-c2ccc(OCCc3ccc(F)cc3)cc2)c(N2CCC(C)(C)CC2)c1[C@H](OC(C)(C)C)C(=O)O [Example 42, (S)-2-(tert-Butoxy)-2-(6-((cyclohexylmethyl)(methyl)carbamoyl)-4-(4,4-dimethylpiperidin-1-yl)-5-(4-(4-fluorophenethoxy)phenyl)-2-methylpyridin-3-yl)acetic acid]",< 0.1
3,"CC(=O)NCc1nc(C)c([C@H](OC(C)(C)C)C(=O)O)c(N2CCC(C)(C)CC2)c1-c1ccc2c(c1)CCN(Cc1ccc(F)cc1C)C2 [Example 140, (S)-2-(6-(Acetamidomethyl)-4-(4,4-dimethylpiperidin-1-yl)-5-(2-(4-fluoro-2-methylbenzyl)-1,2,3,4-tetrahydroisoquinolin-6-yl)-2-methylpyridin-3-yl)-2-(tert-butoxy)acetic acid]",< 0.1
4,"Cc1nnc(C(=O)NCc2nc(C)c([C@H](OC(C)(C)C)C(=O)O)c(N3CCC(C)(C)CC3)c2-c2ccc(OCCc3ccc(F)cc3)cc2)o1 [Example 104, (S)-2-(tert-Butoxy)-2-(4-(4,4-dimethylpiperidin-1-yl)-5-(4-(4-fluorophenethoxy)phenyl)-2-methyl-6-((5-methyl-1,3,4-oxadiazole-2-carboxamido)methyl)pyridin-3-yl)acetic acid]",< 0.1
5,"Cc1nnc(C(=O)N(C)Cc2nc(C)c([C@H](OC(C)(C)C)C(=O)O)c(N3CCC(C)(C)CC3)c2-c2ccc(OCCc3ccc(F)cc3)cc2)o1 [Example 103, (S)-2-(tert-butoxy)-2-(6-((N,5-dimethyl-1,3,4-oxadiazole-2-carboxamido)methyl)-4-(4,4-dimethylpiperidin-1-yl)-5-(4-(4-fluorophenethoxy)phenyl)-2-methylpyridin-3-yl)acetic acid]",< 0.1
6,"CCNCc1nc(C)c([C@H](OC(C)(C)C)C(=O)O)c(N2CCC(C)(C)CC2)c1-c1ccc(OCCc2ccc(F)cc2)cc1 [Example 71, (S)-2-(tert-Butoxy)-2-(4-(4,4-dimethylpiperidin-1-yl)-6-((ethylamino)methyl)-5-(4-(4-fluorophenethoxy)phenyl)-2-methylpyridin-3-yl)acetic acid]",< 0.1
7,"Cc1nc(N)c(-c2ccc3c(c2)CCN(c2ncnc4c2cnn4C)C3)c(N2CCC(C)(C)CC2)c1[C@H](OC(C)(C)C)C(=O)O [Example 149, (S)-2-(6-Amino-4-(4,4-dimethylpiperidin-1-yl)-2-methyl-5-(2-(1-methyl-1H-pyrazolo[3,4-d]pyrimidin-4-yl)-1,2,3,4-tetrahydroisoquinolin-6-yl)pyridin-3-yl)-2-(tert-butoxy)acetic acid]",< 0.1
8,"Cc1nc(COCC2CC(F)(F)C2)c(-c2ccc(OCCc3ccc(F)cc3)cc2)c(N2CCC(C)(C)CC2)c1[C@H](OC(C)(C)C)C(=O)O [Example 30, (S)-2-(tert-Butoxy)-2-(6-(((3,3-difluorocyclobutyl)methoxy)methyl)-4-(4,4-dimethylpiperidin-1-yl)-5-(4-(4-fluorophenethoxy)phenyl)-2-methylpyridin-3-yl)acetic acid]",< 0.1
9,"CC(=O)Nc1nc(C)c([C@H](OC(C)(C)C)C(=O)O)c(N2CCC(C)(C)CC2)c1-c1ccc(OCCc2ccc(F)cc2)cc1 [Example 47, (S)-2-(6-Acetamido-4-(4,4-dimethylpiperidin-1-yl)-5-(4-(4-fluorophenethoxy)phenyl)-2-methylpyridin-3-yl)-2-(tert-butoxy)acetic acid]",< 0.1
10,"Cc1nc(CNCc2ccccn2)c(-c2ccc(OCCc3ccc(F)cc3)cc2)c(N2CCC(C)(C)CC2)c1[C@H](OC(C)(C)C)C(=O)O [Example 95, (S)-2-(tert-Butoxy)-2-(4-(4,4-dimethylpiperidin-1-yl)-5-(4-(4-fluorophenethoxy)phenyl)-2-methyl-6-(((pyridin-2-ylmethyl)amino)methyl)pyridin-3-yl)acetic acid]",< 0.1

# Same assay, conditions: Human immunodeficiency virus 1, MT2, 120 h, read-out: EC50 μM
row,SMILES,EC50 [µM]
1,"Cc1nc(C(=O)N(C)CC2CCCCC2)c(-c2ccc(OCCc3ccc(F)cc3)cc2)c(N2CCC(C)(C)CC2)c1[C@H](OC(C)(C)C)C(=O)O [Example 42, (S)-2-(tert-Butoxy)-2-(6-((cyclohexylmethyl)(methyl)carbamoyl)-4-(4,4-dimethylpiperidin-1-yl)-5-(4-(4-fluorophenethoxy)phenyl)-2-methylpyridin-3-yl)acetic acid]",0.004
2,"CCNCc1nc(C)c([C@H](OC(C)(C)C)C(=O)O)c(N2CCC(C)(C)CC2)c1-c1ccc(OCCc2ccc(F)cc2)cc1 [Example 71, (S)-2-(tert-Butoxy)-2-(4-(4,4-dimethylpiperidin-1-yl)-6-((ethylamino)methyl)-5-(4-(4-fluorophenethoxy)phenyl)-2-methylpyridin-3-yl)acetic acid]",0.002
